Values belong to the compound of their own block, whether it stands above or below them.
How the values were obtained:
[1] = molecular target: Bromodomain adjacent to zinc finger domain protein 2A (Homo sapiens, UniProt Q9UIF9)
[2] = molecular target: T1, cGMP-dependent protein kinase 1 (Homo sapiens) (UniProt Q13976); experiment: Selectivity interaction (KinomeScan (DiscoverX)) EUB0000607a PRKG1; details: at 10 µM
T1 sequence (whole entry): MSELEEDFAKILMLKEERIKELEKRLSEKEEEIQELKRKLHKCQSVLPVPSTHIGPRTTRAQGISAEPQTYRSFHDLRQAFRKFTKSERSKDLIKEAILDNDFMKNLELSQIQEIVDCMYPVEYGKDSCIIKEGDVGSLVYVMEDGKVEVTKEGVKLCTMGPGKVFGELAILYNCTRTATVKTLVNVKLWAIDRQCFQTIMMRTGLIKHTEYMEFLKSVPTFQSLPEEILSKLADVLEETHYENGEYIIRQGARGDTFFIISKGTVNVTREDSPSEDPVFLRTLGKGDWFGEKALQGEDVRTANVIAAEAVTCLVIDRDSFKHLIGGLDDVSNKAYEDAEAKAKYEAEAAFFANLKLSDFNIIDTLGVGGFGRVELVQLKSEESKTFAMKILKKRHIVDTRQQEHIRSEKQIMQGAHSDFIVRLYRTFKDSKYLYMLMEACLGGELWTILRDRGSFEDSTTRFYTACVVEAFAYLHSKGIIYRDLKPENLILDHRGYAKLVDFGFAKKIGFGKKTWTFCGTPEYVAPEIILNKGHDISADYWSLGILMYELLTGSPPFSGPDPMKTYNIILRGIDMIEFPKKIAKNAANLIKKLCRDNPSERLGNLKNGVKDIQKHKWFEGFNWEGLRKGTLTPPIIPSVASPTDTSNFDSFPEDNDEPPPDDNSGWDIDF

[3] = molecular target: Proto-oncogene tyrosine-protein kinase ROS (Homo sapiens) (UniProt P08922); experiment: Selectivity interaction (Upstate Kinase Profiler service (Millipore)) EUB0000056c ROS1; details: at 1 µM
[4] = molecular target: Protein kinase C theta type (Homo sapiens, UniProt Q04759); experiment: Selectivity interaction (Kinase panel (Invitrogen)) EUB0000639a PRKCQ; details: at 200 nM
[5] = molecular target: Tyrosine-protein kinase ABL1 (Homo sapiens, UniProt P00519); experiment: Selectivity interaction (ActivX KiNativ screen (kinase selectivity in THP-1 cell lysates)) EUB0000639a ABL1; format: subcellular; details: lysate, at 0.2 µM
[6] = molecular target: Mitogen-activated protein kinase 10 (Homo sapiens, UniProt P53779); experiment: Selectivity interaction (ProQinase) EUB0000171b MAPK10
[7] = molecular target: T2, Inhibitor of nuclear factor kappa-B kinase subunit epsilon (Homo sapiens) (UniProt Q14164); experiment: Selectivity interaction (ProQinase) EUB0000171b IKBKE
T2 sequence (whole entry): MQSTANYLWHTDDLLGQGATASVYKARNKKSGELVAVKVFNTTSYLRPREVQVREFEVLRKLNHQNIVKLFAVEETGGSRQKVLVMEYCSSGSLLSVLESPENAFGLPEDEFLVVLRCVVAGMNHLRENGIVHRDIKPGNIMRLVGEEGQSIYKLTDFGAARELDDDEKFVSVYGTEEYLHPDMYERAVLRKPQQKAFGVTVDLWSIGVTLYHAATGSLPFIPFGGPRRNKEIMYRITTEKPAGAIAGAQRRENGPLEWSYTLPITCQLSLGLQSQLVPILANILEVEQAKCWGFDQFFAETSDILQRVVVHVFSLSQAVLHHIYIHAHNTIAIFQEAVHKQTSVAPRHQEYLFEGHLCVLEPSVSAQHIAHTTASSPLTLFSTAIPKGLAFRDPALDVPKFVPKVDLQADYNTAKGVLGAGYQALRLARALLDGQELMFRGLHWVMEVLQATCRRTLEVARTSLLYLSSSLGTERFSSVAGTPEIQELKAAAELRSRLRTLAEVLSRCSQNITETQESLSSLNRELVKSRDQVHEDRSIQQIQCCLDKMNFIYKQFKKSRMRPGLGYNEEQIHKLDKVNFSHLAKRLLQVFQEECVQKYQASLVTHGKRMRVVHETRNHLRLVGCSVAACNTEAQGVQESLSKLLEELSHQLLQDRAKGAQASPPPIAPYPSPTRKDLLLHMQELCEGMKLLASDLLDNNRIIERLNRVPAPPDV

[8] = molecular target: TGF-beta receptor type-2 (Homo sapiens) (UniProt P37173); experiment: Selectivity interaction (KinomeScan (DiscoverX)) EUB0001079a TGFBR2; details: at 1 µM
[9] = molecular target: T3, Mitogen-activated protein kinase kinase kinase 3 (Homo sapiens) (UniProt Q99759); experiment: Selectivity interaction (Kinase panel (KiNativ target engagement assay in Jurkat cells)) EUB0001635a MAP3K3; format: cell-based; details: Selectivity number of off-targets 0.0, Selectivity number of targets 233.0, Source Knowledge https://www.sciencedirect.com/science/article/pii/S2451945619300674?via%3Dihub, at 1 µM
T3 sequence (whole entry): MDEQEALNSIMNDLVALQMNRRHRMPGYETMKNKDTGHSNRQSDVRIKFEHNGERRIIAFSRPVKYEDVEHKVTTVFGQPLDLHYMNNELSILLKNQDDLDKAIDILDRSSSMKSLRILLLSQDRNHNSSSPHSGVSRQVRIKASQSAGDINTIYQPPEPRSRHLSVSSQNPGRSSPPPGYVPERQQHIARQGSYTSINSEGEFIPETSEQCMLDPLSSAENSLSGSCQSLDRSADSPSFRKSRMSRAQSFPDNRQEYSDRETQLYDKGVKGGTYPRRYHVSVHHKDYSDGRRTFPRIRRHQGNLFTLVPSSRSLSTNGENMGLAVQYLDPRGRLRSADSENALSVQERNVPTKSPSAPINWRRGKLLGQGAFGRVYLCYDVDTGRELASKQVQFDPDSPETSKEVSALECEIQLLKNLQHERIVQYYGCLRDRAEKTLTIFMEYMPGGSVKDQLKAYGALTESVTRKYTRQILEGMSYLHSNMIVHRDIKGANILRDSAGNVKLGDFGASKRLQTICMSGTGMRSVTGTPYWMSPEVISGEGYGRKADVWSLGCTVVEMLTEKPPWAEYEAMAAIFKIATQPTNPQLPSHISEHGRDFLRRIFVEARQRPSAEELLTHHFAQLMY

[10] = molecular target: RAC-beta serine/threonine-protein kinase (Homo sapiens) (UniProt P31751); experiment: Selectivity interaction (Kinase panel (KiNativ target engagement assay in Jurkat cells)) EUB0001635a AKT2; format: cell-based; details: at 1 µM
[11] = molecular target: Dual specificity protein kinase CLK3 (Homo sapiens, UniProt P49761); experiment: Selectivity interaction (KinomeScan (DiscoverX)) EUB0000092b CLK3; details: at 10 µM
[12] = molecular target: Mitogen-activated protein kinase 8 (Homo sapiens, UniProt P45983); experiment: Selectivity interaction (ActivX KiNativ screen (ex vivo kinase selectivity in human PBMCs)) EUB0001619a MAPK8; format: cell-based; details: PBMC, at 1 µM
[13] = molecular target: Diacylglycerol kinase alpha (Homo sapiens) (UniProt P23743); experiment: Selectivity interaction (ActivX KiNativ screen (ex vivo kinase selectivity in human PBMCs)) EUB0001619a DGKA; format: cell-based; details: PBMC, at 1 µM
Sequence of Diacylglycerol kinase alpha (Homo sapiens) (P23743 whole entry): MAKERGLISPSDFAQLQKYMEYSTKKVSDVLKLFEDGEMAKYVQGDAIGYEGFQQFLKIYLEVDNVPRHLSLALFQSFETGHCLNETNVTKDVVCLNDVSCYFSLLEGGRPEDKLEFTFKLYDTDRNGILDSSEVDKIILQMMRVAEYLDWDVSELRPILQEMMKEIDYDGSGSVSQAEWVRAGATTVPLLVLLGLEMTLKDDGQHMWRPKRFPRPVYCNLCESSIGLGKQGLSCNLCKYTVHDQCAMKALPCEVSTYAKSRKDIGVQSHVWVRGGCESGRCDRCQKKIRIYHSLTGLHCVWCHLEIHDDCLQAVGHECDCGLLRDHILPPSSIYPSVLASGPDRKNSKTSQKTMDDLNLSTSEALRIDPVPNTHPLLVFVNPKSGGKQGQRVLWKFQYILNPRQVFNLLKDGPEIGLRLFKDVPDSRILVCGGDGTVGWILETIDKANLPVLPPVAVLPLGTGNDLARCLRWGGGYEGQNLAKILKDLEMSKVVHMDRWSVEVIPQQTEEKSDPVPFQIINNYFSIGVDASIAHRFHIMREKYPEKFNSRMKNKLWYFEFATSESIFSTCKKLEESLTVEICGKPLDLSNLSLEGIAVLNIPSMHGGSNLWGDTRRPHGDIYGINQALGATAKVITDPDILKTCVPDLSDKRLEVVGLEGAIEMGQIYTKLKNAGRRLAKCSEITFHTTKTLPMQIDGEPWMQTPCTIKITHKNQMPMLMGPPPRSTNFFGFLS

Sequence of Mitogen-activated protein kinase 10 (P53779 whole entry): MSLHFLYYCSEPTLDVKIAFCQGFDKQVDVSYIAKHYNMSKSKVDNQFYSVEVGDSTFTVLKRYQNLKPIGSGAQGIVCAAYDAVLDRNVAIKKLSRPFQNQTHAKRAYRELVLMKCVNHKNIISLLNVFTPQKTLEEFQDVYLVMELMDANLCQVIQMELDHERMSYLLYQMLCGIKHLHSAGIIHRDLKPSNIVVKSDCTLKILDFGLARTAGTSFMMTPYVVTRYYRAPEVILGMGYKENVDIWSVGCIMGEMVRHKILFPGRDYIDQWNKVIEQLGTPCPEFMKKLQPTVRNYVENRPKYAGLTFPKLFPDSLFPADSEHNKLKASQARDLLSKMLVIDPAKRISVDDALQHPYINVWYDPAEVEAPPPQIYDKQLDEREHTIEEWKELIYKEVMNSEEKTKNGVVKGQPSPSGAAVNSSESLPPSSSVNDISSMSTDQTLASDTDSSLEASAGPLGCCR
Sequence of Protein kinase C theta type (Q04759 whole entry, looked up): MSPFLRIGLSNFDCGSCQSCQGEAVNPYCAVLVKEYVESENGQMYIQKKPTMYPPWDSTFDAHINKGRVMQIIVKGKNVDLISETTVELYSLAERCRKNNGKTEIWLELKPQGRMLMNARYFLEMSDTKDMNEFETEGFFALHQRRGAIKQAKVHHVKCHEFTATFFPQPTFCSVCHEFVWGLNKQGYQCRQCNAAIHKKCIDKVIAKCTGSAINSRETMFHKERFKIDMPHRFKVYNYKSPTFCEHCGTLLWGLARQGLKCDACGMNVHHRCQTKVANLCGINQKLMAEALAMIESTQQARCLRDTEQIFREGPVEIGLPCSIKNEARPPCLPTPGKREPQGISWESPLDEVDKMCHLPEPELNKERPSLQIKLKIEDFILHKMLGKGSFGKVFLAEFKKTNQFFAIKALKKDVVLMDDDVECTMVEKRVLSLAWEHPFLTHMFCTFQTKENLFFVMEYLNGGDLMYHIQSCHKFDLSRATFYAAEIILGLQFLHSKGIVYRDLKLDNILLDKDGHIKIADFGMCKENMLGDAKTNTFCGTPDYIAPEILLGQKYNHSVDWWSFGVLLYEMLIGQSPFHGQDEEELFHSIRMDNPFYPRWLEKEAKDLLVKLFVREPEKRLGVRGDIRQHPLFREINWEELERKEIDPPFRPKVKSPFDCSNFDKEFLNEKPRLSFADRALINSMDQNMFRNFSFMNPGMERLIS
Sequence of Proto-oncogene tyrosine-protein kinase ROS (Homo sapiens) (P08922 whole entry): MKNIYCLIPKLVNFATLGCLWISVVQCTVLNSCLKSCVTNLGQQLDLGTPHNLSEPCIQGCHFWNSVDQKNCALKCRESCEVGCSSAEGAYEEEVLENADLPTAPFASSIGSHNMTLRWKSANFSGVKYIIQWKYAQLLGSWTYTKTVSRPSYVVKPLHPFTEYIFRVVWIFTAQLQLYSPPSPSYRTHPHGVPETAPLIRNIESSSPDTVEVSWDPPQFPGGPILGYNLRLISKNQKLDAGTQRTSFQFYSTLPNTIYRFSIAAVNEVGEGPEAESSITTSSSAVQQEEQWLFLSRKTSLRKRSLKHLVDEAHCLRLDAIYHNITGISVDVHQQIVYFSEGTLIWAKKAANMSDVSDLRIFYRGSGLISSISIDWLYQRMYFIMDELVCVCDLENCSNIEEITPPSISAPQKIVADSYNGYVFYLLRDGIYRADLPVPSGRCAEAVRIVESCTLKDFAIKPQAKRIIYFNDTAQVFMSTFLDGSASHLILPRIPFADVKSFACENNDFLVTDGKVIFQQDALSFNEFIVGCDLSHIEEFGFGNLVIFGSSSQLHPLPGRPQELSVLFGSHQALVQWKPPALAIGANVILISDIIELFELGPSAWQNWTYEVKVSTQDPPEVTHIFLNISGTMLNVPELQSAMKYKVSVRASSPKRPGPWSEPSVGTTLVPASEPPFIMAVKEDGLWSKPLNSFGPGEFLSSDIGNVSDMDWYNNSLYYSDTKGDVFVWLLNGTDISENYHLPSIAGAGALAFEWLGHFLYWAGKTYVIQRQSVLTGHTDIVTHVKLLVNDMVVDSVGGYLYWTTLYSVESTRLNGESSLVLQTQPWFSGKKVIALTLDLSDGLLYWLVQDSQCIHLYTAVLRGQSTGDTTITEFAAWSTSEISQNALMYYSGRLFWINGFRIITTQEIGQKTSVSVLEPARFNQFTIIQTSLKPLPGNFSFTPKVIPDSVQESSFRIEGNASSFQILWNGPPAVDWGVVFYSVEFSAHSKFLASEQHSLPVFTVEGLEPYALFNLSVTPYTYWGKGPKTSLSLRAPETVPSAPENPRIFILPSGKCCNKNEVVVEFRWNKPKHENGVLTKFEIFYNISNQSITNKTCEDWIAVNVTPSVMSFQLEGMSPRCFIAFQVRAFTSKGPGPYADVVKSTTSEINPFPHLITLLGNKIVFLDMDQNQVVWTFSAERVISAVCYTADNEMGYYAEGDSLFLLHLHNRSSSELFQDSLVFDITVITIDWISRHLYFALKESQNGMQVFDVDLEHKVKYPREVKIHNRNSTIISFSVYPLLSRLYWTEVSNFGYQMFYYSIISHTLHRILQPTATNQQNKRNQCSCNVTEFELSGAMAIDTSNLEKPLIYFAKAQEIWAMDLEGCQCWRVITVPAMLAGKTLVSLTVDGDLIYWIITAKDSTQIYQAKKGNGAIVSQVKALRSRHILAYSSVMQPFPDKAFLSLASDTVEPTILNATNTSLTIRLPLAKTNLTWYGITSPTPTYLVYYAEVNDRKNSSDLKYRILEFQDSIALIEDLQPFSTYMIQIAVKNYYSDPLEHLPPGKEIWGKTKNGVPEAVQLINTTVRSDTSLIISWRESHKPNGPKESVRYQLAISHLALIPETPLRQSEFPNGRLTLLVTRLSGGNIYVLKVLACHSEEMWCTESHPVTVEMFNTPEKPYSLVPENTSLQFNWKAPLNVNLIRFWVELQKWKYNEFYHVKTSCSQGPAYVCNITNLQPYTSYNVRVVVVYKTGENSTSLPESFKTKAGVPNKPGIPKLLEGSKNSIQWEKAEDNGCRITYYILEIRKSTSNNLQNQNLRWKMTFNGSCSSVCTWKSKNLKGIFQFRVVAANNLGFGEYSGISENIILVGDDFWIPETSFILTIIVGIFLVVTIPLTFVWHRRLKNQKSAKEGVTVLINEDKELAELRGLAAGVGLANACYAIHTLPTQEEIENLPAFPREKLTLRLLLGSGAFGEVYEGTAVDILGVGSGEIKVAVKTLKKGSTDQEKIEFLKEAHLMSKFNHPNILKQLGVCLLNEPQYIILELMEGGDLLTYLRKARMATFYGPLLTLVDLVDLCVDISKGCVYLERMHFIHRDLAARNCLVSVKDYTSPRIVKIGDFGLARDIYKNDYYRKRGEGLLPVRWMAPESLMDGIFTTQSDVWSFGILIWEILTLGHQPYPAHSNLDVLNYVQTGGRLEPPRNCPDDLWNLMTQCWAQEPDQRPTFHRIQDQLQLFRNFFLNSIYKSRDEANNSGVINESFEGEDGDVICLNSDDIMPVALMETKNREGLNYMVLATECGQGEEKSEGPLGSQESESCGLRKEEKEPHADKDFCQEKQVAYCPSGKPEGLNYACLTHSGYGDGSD
Sequence of TGF-beta receptor type-2 (Homo sapiens) (P37173 whole entry): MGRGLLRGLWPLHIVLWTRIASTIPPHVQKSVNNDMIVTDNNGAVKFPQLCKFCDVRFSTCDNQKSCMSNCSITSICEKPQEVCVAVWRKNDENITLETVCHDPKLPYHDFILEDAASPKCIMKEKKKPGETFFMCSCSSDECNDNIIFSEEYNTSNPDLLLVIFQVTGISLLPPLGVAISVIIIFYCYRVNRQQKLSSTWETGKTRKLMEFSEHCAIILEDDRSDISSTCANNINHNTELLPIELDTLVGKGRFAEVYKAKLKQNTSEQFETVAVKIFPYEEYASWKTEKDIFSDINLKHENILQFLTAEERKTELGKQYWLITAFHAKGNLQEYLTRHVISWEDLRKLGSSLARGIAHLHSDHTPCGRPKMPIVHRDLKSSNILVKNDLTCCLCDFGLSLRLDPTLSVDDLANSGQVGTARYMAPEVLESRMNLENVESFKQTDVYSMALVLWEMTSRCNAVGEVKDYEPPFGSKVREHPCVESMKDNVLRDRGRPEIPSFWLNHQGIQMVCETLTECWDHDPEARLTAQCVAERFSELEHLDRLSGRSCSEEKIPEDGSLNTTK

dTM [1]: < 2 K
Compound: CN(C)CCCOc1ccc(-c2cc(NCCCn3cccn3)nc(S(C)(=O)=O)n2)cc1

Compound: CNC(=O)Nc1ccc(-c2nc(N3CC4CCC(C3)O4)c3cnn(C4CCC5(CC4)OCCO5)c3n2)cc1
% of control [2]: 100%

% of inhibition [3]: -15%
Compound: Cc1ccc(-c2ccc3c(ccc4sc5c(c43)NC[C@@H](C)NC5=O)n2)cn1

% of inhibition [4]: 3.66%
% of inhibition [5]: -42.6%
Compound: CC[C@@H]1[C@H](F)C(=O)N[C@@H]1COc1nccc2cc(C(N)=O)c(OC)cc12 [ZIMLOVISERTIB]

% of control ([6]; at 1 µM): 3%
% of control ([6]; at 5 µM): 0%
% of control ([7]; at 1 µM): 88%
% of control ([7]; at 5 µM): 70%
Compound: C=CC(=O)Nc1cccc(C(=O)Nc2ccc(Nc3cc(-c4[nH]c(SC)nc4C)ccn3)cc2)c1

Compound: Nc1cnc(N2CCc3cc(S(=O)(=O)Nc4c(F)cc(Cl)cc4F)cc(N4CCCC4=O)c32)nc1 [TP-020n]
% of control [8]: 92%

Compound: C=CC(=O)Nc1ccc(C(=O)Nc2[nH]nc3c2CN(C(=O)N[C@H](CN(C)C)c2ccccc2)C3(C)C)cc1
% of engagement [9]: 4.7%
% of engagement [10]: -11.1%

Compound: CCC(=O)N1CCN(c2ccc(-n3c(=O)ccc4cnc5ccc(-c6cnc7ccccc7c6)cc5c43)cc2C(F)(F)F)CC1
% of control [11]: 43%

Compound: N#Cc1cccc(-c2c[nH]c3ncnc(N4CCOCC4)c23)c1
% of inhibition [12]: 5%
% of inhibition [13]: -9%

From ChEMBL document CHEMBL5465560, “Selectivity Literature for EUbOPEN Chemogenomic Library” (2024)
